{"source": "patent US10383880B2", "about": "(Reset Therapeutics, Inc., priority 2012, dated 2019)", "data": [{"system": "Per2-dLuc U2OS reporter cells", "assay": "Per2 assay for evaluating the potency of test compounds (high-throughput circadian assay)", "format": "cell-based", "details": "Homo sapiens, U2OS, stable U2OS reporter cells harboring Per2-dLuc; luminescence monitored over 4-5 days at 35° C.", "method": "Compounds were screened by using a high-throughput circadian assay system as previously described in Zhang, E. E. et al. Cell, 2009, 139, 199-210. In brief, stable U2OS reporter cells harboring Per2-dLuc were plated at a density of 8,000 cells/well in Corning 96-well, solid white, flat bottom, TC-treated microplates (Corning®), and incubated for 24 hours at 37° C. in the presence of 5% CO2. The cells were then synchronized by serum shock by media exchange to a minimal explant media (10 mM HEPES (pH 7.0), 2% B27, 1×PSG (Invitrogen®), and 1.0 mM beetle luciferin (Promega®)) followed by the addition of the compounds of formula I dissolved in dimethylsulfoxide (0.5% final dimethylsulfoxide concentration). Gene expression was monitored by measuring luminescence (TecanR M200) over 4-5 days at 35° C. The period, amplitude, and phase of the associated circadian rhythms were determined using Multicycle™ software (Actimetrics, Inc). EC50 values of the compounds of formula I were calculated using Graphpad™ (Prism®).", "units": {"EC50": "nM"}, "values": [{"smiles": "CC(C)N(CC(O)Cn1c2ccccc2c2ccccc21)S(C)(=O)=O", "note": "(centres unmarked) [Compound 46, N-(3-(9H-Carbazol-9-yl)-2-hydroxypropyl)-N-isopropylmethanesulfonamide]", "EC50": 100}, {"smiles": "CCN(CC(O)Cn1c2cc(F)ccc2c2ccc(F)cc21)S(C)(=O)=O", "note": "(centres unmarked) [Compound 158, N-(3-(2,7-Difluoro-9H-carbazol-9-yl)-2-hydroxypropyl)-N-ethylmethanesulfonamide]", "EC50": 811}, {"smiles": "CS(=O)(=O)N(CC(O)Cn1c2ccc(F)cc2c2ccc(F)cc21)C1CC1", "note": "(centres unmarked) [Compound 167, N-Cyclopropyl-N-(3-(2,6-difluoro-9H-carbazol-9-yl)-2-hydroxypropyl)methanesulfonamide]", "EC50": 267}, {"smiles": "CCS(=O)(=O)N(Cc1ccco1)CC(O)Cn1c2ccccc2c2ccccc21", "note": "(centres unmarked) [Compound 2, N-(3-(9H-Carbazol-9-yl)-2-hydroxypropyl)-N-(furan-2-ylmethyl)ethanesulfonamide]", "EC50": 742}, {"smiles": "CC(C)N(CC(C)(O)Cn1c2ccc(F)cc2c2cc(F)ccc21)S(C)(=O)=O", "note": "(centres unmarked) [Compound 150, N-(3-(3,6-Difluoro-9H-carbazol-9-yl)-2-hydroxy-2-methylpropyl)-N-isopropylmethanesulfonamide]", "EC50": 5050}, {"smiles": "CS(=O)(=O)N(CC(O)Cn1c2ccccc2c2ccccc21)c1ccc(Cl)cc1", "note": "(centres unmarked) [Compound 22, N-(3-(9H-Carbazol-9-yl)-2-hydroxypropyl)-N-(4-chlorophenyl)methanesulfonamide]", "EC50": 510}, {"smiles": "COCCN(CC(O)Cn1c2ccc(F)cc2c2cc(F)ccc21)S(C)(=O)=O", "note": "(centres unmarked) [Compound 90, N-(3-(3,6-Difluoro-9H-carbazol-9-yl)-2-hydroxypropyl)-N-(2-methoxyethyl)methanesulfonamide]", "EC50": 406}, {"smiles": "CC(O)(CN1CCCN(C2CCCCC2)S1(=O)=O)Cn1c2ccc(F)cc2c2cc(F)ccc21", "note": "(centres unmarked) [Compound 223, 2-(3-(3,6-Difluoro-9H-carbazol-9-yl)-2-hydroxy-2-methylpropyl)-6-cyclohexyl-1,2,6-thiadiazinane-1,1-dioxide]", "EC50": 6790}, {"smiles": "O=S1(=O)N(CC(O)Cn2c3ccc(F)cc3c3cc(F)ccc32)CCN1C1CCC1", "note": "(centres unmarked) [Compound 234]", "EC50": 289}, {"smiles": "CC(O)(CN1CCC(F)S1(=O)=O)Cn1c2ccc(F)cc2c2cc(F)ccc21", "note": "(centres unmarked) [Compound 184, 2-(3-(3,6-Difluoro-9H-carbazol-9-yl)-2-hydroxy-2-methylpropyl)-5-fluoroisothiazolidine-1,1-dioxide]", "EC50": 155}, {"smiles": "COCCCS(=O)(=O)N(Cc1ccco1)CC(O)Cn1c2ccccc2c2ccccc21", "note": "(centres unmarked) [Compound 9, N-(3-(9H-Carbazol-9-yl)-2-hydroxypropyl)-N-(furan-2-ylmethyl)-3-methoxypropane-1-sulfonamide]", "EC50": 2860}, {"smiles": "Cc1ccc(N(CC(O)Cn2c3ccccc3c3ccccc32)S(C)(=O)=O)cc1", "note": "(centres unmarked) [Compound 25, N-(3-(9H-Carbazol-9-yl)-2-hydroxypropyl)-N-p-tolylmethanesulfonamide]", "EC50": 170}, {"smiles": "CS(=O)(=O)N(CC(O)Cn1c2ccccc2c2ccccc21)C1(C(F)(F)F)CCC1", "note": "(centres unmarked) [Compound 146, N-(3-(9H-Carbazol-9-yl)-2-hydroxypropyl)-N-(1-(trifluoromethyl)cyclobutyl)methanesulfonamide]", "EC50": 1160}, {"smiles": "CS(=O)(=O)N(CC(O)Cn1c2ccccc2c2ccccc21)C1CCCCC1", "note": "(centres unmarked) [Compound 71, N-(3-(9H-Carbazol-9-yl)-2-hydroxypropyl)-N-cyclohexylmethanesulfonamide]", "EC50": 3300}, {"smiles": "CC(=O)N1CCC(N(CC(O)Cn2c3ccccc3c3ccccc32)S(C)(=O)=O)CC1", "note": "(centres unmarked) [Compound 59, N-(3-(9H-Carbazol-9-yl)-2-hydroxypropyl)-N-(1-acetylpiperidin-4-yl)methanesulfonamide]", "EC50": 9580}, {"smiles": "O=S(=O)(C1CC1)N(Cc1ccco1)CC(O)Cn1c2ccccc2c2ccccc21", "note": "(centres unmarked) [Compound 16, N-(3-(9H-Carbazol-9-yl)-2-hydroxypropyl)-N-(furan-2-ylmethyl)cyclopropanesulfonamide]", "EC50": 1670}, {"smiles": "CS(=O)(=O)N1CCCCC1C(O)Cn1c2ccccc2c2ccccc21", "note": "(centres unmarked) [Compound 242, 2-(9H-Carbazol-9-yl)-1-(1-(methylsulfonyl)-piperidin-2-yl)ethanol]", "EC50": 494}, {"smiles": "CC1CC(N(CC(C)(O)Cn2c3ccc(F)cc3c3cc(F)ccc32)S(C)(=O)=O)C1", "note": "(centres unmarked) [Compound 191, N-(3-(3,6-Difluoro-9H-carbazol-9-yl)-2-hydroxy-2-methylpropyl)-N-(3-methylcyclobutyl)methanesulfonamide]", "EC50": 1190}, {"smiles": "CN(CC(O)Cn1c2ccc(F)cc2c2c(F)cccc21)S(C)(=O)=O", "note": "(centres unmarked) [Compound 110, N-(3-(3,5-Difluoro-9H-carbazol-9-yl)-2-hydroxypropyl)-N-methylmethanesulfonamide]", "EC50": 3630}, {"smiles": "CC1(C)CCN(CC(O)Cn2c3ccc(F)cc3c3cc(F)ccc32)S1(=O)=O", "note": "(centres unmarked) [Compound 178, 2-(3-(3,6-Difluoro-9H-carbazol-9-yl)-2-hydroxypropyl)-5,5-dimethylisothiazolidine-1,1-dioxide]", "EC50": 73}, {"smiles": "CC(O)(CN(C1(C)CCCC1)S(C)(=O)=O)Cn1c2ccc(F)cc2c2cc(F)ccc21", "note": "(centres unmarked) [Compound 197, N-(3-(3,6-Difluoro-9H-carbazol-9-yl)-2-hydroxy-2-methylpropyl)-N-(1-methylcyclopentyl)methanesulfonamide]", "EC50": 873}, {"smiles": "O=S(=O)(CC1CCOC1)N(Cc1ccco1)CC(O)Cn1c2ccccc2c2ccccc21", "note": "(centres unmarked) [Compound 17, N-(3-(9H-Carbazol-9-yl)-2-hydroxypropyl)-N-(furan-2-ylmethyl)-1-(tetrahydrofuran-3-yl)methanesulfonamide]", "EC50": 2490}, {"smiles": "O=S(=O)(C1CCCCC1)N(Cc1ccco1)CC(O)Cn1c2ccccc2c2ccccc21", "note": "(centres unmarked) [Compound 84, N-(3-(9H-Carbazol-9-yl)-2-hydroxypropyl)-N-(furan-2-ylmethyl)cyclohexanesulfonamide]", "EC50": 892}, {"smiles": "CS(=O)(=O)N(CC(O)Cn1c2ccccc2c2ccccc21)C1CC(F)C1", "note": "(centres unmarked) [Compound 147, N-(3-(9H-Carbazol-9-yl)-2-hydroxypropyl)-N-(3-fluorocyclobutyl)methanesulfonamide]", "EC50": 980}, {"smiles": "O=S(=O)(CC(F)F)N(Cc1ccco1)CC(O)Cn1c2ccccc2c2ccccc21", "note": "(centres unmarked) [Compound 8, N-(3-(9H-Carbazol-9-yl)-2-hydroxypropyl)-2,2-difluoro-N-(furan-2-ylmethyl)ethanesulfonamide]", "EC50": 6960}, {"smiles": "COCCN(CC(O)Cn1c2ccccc2c2ccccc21)S(C)(=O)=O", "note": "(centres unmarked) [Compound 30, N-(3-(9H-Carbazol-9-yl)-2-hydroxypropyl)-N-(2-methoxyethyl)methanesulfonamide]", "EC50": 390}, {"smiles": "CCCN(CC(O)Cn1c2cc(F)ccc2c2ccc(F)cc21)S(C)(=O)=O", "note": "(centres unmarked) [Compound 157, N-(3-(2,7-Difluoro-9H-carbazol-9-yl)-2-hydroxypropyl)-N-propylmethanesulfonamide]", "EC50": 895}, {"smiles": "CC(C)N(CC(O)Cn1c2ccc(F)cc2c2ccc(F)cc21)S(C)(=O)=O", "note": "(centres unmarked) [Compound 165, N-(3-(2,6-Difluoro-9H-carbazol-9-yl)-2-hydroxypropyl)-N-isopropylmethanesulfonamide]", "EC50": 95}, {"smiles": "O=S(=O)(CC1CCCO1)N(Cc1ccco1)CC(O)Cn1c2ccccc2c2ccccc21", "note": "(centres unmarked) [Compound 19, N-(3-(9H-Carbazol-9-yl)-2-hydroxypropyl)-N-(furan-2-ylmethyl)-1-(tetrahydrofuran-2-yl)methanesulfonamide]", "EC50": 2100}, {"smiles": "CN1CCCN(CC(C)(O)Cn2c3ccc(F)cc3c3cc(F)ccc32)S1(=O)=O", "note": "(centres unmarked) [Compound 170, 2-(3-(3,6-Difluoro-9H-carbazol-9-yl)-2-hydroxy-2-methylpropyl)-6-methyl-1,2,6-thiadiazinane-1,1-dioxide]", "EC50": 1260}, {"smiles": "CS(=O)(=O)N(CC(O)Cn1c2ccccc2c2ccccc21)c1ccc2sccc2c1", "note": "(centres unmarked) [Compound 65, N-(3-(9H-Carbazol-9-yl)-2-hydroxypropyl)-N-(benzo[b]thiophen-5-yl)methanesulfonamide]", "EC50": 9500}, {"smiles": "CC(C)(C(O)Cn1c2ccccc2c2ccccc21)N1CCCS1(=O)=O", "note": "(centres unmarked) [Compound 243, 2-(4-(9H-Carbazol-9-yl)-3-hydroxy-2-methylbutan-2-yl)-isothiazolidine-1,1-dioxide]", "EC50": 42}, {"smiles": "CC(C)N1CCCN(CC(O)Cn2c3ccc(F)cc3c3cc(F)ccc32)S1(=O)=O", "note": "(centres unmarked) [Compound 217, 2-(3-(3,6-Difluoro-9H-carbazol-9-yl)-2-hydroxypropyl)-6-isopropyl-1,2,6-thiadiazinane-1,1-dioxide]", "EC50": 1670}, {"smiles": "O=S1(=O)CCCCN1C[C@@H](O)Cn1c2ccccc2c2ccccc21", "note": "[Compound 38, (S)-N-(3-(9H-Carbazol-9-yl)-2-hydroxypropyl)-1,2-thiazinane 1,1-dioxide]", "EC50": 11}, {"smiles": "CN1CCCN(CC(O)Cn2c3ccc(F)cc3c3cc(F)ccc32)S1(=O)=O", "note": "(centres unmarked) [Compound 169, 2-(3-(3,6-Difluoro-9H-carbazol-9-yl)-2-hydroxypropyl)-6-methyl-1,2,6-thiadiazinane-1,1-dioxide]", "EC50": 504}, {"smiles": "CC(C)(C(O)CN1CCCS1(=O)=O)n1c2ccccc2c2ccccc21", "note": "(centres unmarked) [Compound 114, 2-(3-(9H-Carbazol-9-yl)-2-hydroxy-3-methylbutyl)-isothiazolidine-1,1-dioxide]", "EC50": 521}, {"smiles": "CC(C)(N(CC(O)Cn1c2ccccc2c2ccccc21)S(C)(=O)=O)C(F)(F)F", "note": "(centres unmarked) [Compound 148, N-(3-(9H-Carbazol-9-yl)-2-hydroxypropyl)-N-(1,1,1-trifluoro-2-methylpropan-2-yl)methanesulfonamide]", "EC50": 489}, {"smiles": "CC1CCC(N(CC(O)Cn2c3ccccc3c3ccccc32)S(C)(=O)=O)CC1", "note": "(centres unmarked) [Compound 126, N-(3-(9H-Carbazol-9-yl)-2-hydroxypropyl)-N-(4-methylcyclohexyl)methanesulfonamide]", "EC50": 425}]}]}
